# According to US11242537B2, “Method for improving sensitivity of plant to gibberellin inhibitor and use thereof” (CHINA AGRICULTURAL UNIVERSITY, priority 2017, dated 2022):
# Legend:
# ZmCPS::ga1-5 = test: Effect of DPC on plant height (step 4.1), ZmCPS::ga1-5; type: in vivo, Arabidopsis thaliana
# Procedure: (§1) In the following examples, the growth conditions of Arabidopsis thaliana are: culturing in a growth chamber with a photoperiod of 16 h light/8 h dark, a light intensity of 60 μmol/m^2/s, a humidity of 60%-70%, and a temperature of 22° C.
# (§2) The experiment was repeated three times, and the specific steps of each repeated experiment were as follows:
# (§3) Thirty homozygous line plants of the HRP::ga1-1 of step 2 were randomly selected and randomly divided into three groups, ten plants in each group. On the 33rd day of sowing (the day of sowing was recorded as the first day of sowing), the plants of these three groups were treated as follows, respectively one group was sprayed with water (i.e., 0 mg/L DPC solution) and cultured for 12 days to obtain untreated HRP::ga1-1; one group was sprayed with 30 mg/L DPC solution and cultured for 12 days to obtain 30 mg/L DPC-treated HRP::ga1-1; the last group was sprayed with 500 mg/L aqueous DPC solution and cultured for 12 days to obtain 500 mg/L DPC-treated HRP::ga1-1.
# (§4) According to the above method, the homozygous line plants of the HRP::ga1-1 were replaced with the homozygous line plants of the HRP::ga1-5, the homozygous line plants of the ZmCPS::ga1-1, the homozygous line plants of the ZmCPS::ga1-5, the homozygous line plants of the PsSuper1300::ga1-1 and the homozygous line plants of the PsSuper1300::ga1-5 respectively, the other steps were unchanged, and untreated HRP::ga1-5, 30 mg/L DPC-treated HRP::ga1-5, 500 mg/L DPC-treated HRP::ga1-5, untreated ZmCPS::ga1-1, 30 mg/L DPC-treated ZmCPS::ga1-1, 500 mg/L DPC-treated ZmCPS::ga1-1, untreated ZmCPS::ga1-5, 30 mg/L DPC-treated ZmCPS::ga1-5, 500 mg/L DPC-treated ZmCPS::ga1-5, untreated PsSuper1300::ga1-1, 30 mg/L DPC-treated PsSuper1300::ga1-1, 500 mg/L DPC-treated PsSuper1300::ga1-1, untreated PsSuper1300::ga1-5, 30 mg/L DPC-treated PsSuper1300::ga1-5 and 500 mg/L DPC-treated PsSuper1300::ga1-5 were obtained, respectively.
# (§5) The plant heights of the above Arabidopsis thaliana before the treatment (FIG. 1) and after different treatments (FIG. 2 and Table 2) were measured.
# pSuper1300::ga1-5 = test: Effect of DPC on plant height (step 4.1), empty vector pSuper1300::ga1-5; type: in vivo, Arabidopsis thaliana; details: for Plant height: 12 days; for Plant height reduction rate: relative to 0 mg/L
# Procedure: as §1, §2, §3, §4, §5
# ga1-5 = test: Effect of DPC on plant height (step 4.1), mutant ga1-5; type: in vivo, Arabidopsis thaliana; details: for Plant height: 12 days; for Plant height reduction rate: relative to 0 mg/L
# Procedure: as §1, §2
# When the ga1-1 was cultured to the 33rd day of sowing (the day of sowing was recorded as the first day of sowing), 30 plants were taken and randomly divided into three groups, ten plants in each group and the plants of these three groups were treated as follows, respectively: one group was sprayed with 0 mg/L DPC solution and cultured for 12 days to obtain untreated ga1-1; one group was sprayed with 30 mg/L aqueous DPC solution and cultured for 12 days to obtain 30 mg/L DPC-treated ga1-1; the last group was sprayed with 500 mg/L DPC solution and cultured for 12 days to obtain 500 mg/L DPC-treated ga1-1.
# According to the above method, the ga1-1 was replaced with the ga1-5, the other steps were unchanged, and untreated ga1-5, 30 mg/L DPC-treated ga1-5, and 500 mg/L DPC-treated ga1-5 were obtained, respectively.
# as §5
# HRP::ga1-1 = test: Effects of different concentrations of DPC on plant height (step 4.2), HRP::ga1-1; type: in vivo, Arabidopsis thaliana
# Procedure: as §1, §2
# (§6) Seventy homozygous line plants of the HRP::ga1-1 of step 2 were randomly selected and randomly divided into seven groups, ten plants in each group. On the 33rd day of sowing (the day of sowing was recorded as the first day of sowing), the plants of these seven groups were treated as follows, respectively: one group was sprayed with water (i.e., 0 mg/L aqueous DPC solution) and cultured for 12 days to obtain untreated HRP::ga1-1; one group was sprayed with 30 mg/L aqueous DPC solution and cultured for 12 days to obtain 30 mg/L DPC-treated HRP::ga1-1; one group was sprayed with 50 mg/L aqueous DPC solution and cultured for 12 days to obtain 50 mg/L DPC-treated HRP::ga1-1; one group was sprayed with 100 mg/L aqueous DPC solution and cultured for 12 days to obtain 100 mg/L DPC-treated HRP::ga1-1; one group was sprayed with 300 mg/L aqueous DPC solution and cultured for 12 days to obtain 300 mg/L DPC-treated HRP::ga1-1; one group was sprayed with 500 mg/L aqueous DPC solution and cultured for 12 days to obtain 500 mg/L DPC-treated HRP::ga1-1; one group was sprayed with 1000 mg/L aqueous DPC solution and cultured for 12 days to obtain 1000 mg/L DPC-treated HRP::ga1-1.
# (§7) The plant heights of the differently treated Arabidopsis thaliana were measured respectively (FIG. 3), and the average plant heights are shown in Table 3.
# HRP::ga1-5 = test: Effects of different concentrations of DPC on plant height (step 4.2), HRP::ga1-5; type: in vivo, Arabidopsis thaliana
# Procedure: as §1, §2, §6
# According to the above method, the homozygous line plant of the HRP::ga1-1 was replaced with the pure homozygous line plant of the HRP::ga1-5, and the other steps were unchanged to obtain untreated HRP::ga1-5, 30 mg/L DPC-treated HRP::ga1-5, 50 mg/L DPC-treated HRP::ga1-5, 100 mg/L DPC-treated HRP::ga1-5, 300 mg/L DPC-treated HRP::ga1-5, 500 mg/L DPC-treated HRP::ga1-5 and 1000 mg/L DPC-treated HRP::ga1-5, respectively.
# as §7
# [1] = test system: transgenic zmcps-ko line with the HRP, line No. 443; test: Sensitivity of transgenic zmcps-ko line with the HRP to DPC, line No. 443; type: in vivo, maize
# From the text: (§8) The GV3101-pSuper1300-HRP of Example 1 was transformed into the ZmCPSKO maize embryos of step 1.1 by using the Agrobacterium to infect the maize immature embryos, and positive transgenic maize with the HRP was obtained by screening, and the transgenic maize with the HRP contained the target gene HRP. The GV3101-pSuper1300-ZmCPS and GV3101-pSuper1300 were used as controls, and the ZmCPS control maize and empty vector control maize were obtained, respectively.
# (§9) The WT and transgenic plants were sprayed with DPC during jointing stage to test their DPC sensitivity: the whole plant was sprayed with 500 ppm […] DPC when the maize was grown to 7 leaf expansion phase and 12 leaf expansion phase. Plant height and ear height were measured 2 weeks after treatment and after tasseling.
# [2] = test system: transgenic zmcps-ko line with the HRP, line No. 614; test: Sensitivity of transgenic zmcps-ko line with the HRP to DPC, line No. 614; type: in vivo, maize; details: 500 ppm (5 mM) DPC spray
# From the text: as §8, §9
# [3] = test system: transgenic zmcps-ko line with the HRP, line No. 623; test: Sensitivity of transgenic zmcps-ko line with the HRP to DPC, line No. 623; type: in vivo, maize; details: 500 ppm (5 mM) DPC spray
# From the text: as §8, §9
# B73 (WT) = test: Sensitivity of wild type maize B73 to DPC; type: in vivo; details: 500 ppm (5 mM) DPC spray
# Procedure: as §9
# maize Zhengdan 958 = details: 1000 mg/L DPC (Chen yin, 2012); cited from earlier work
# [4] = 30 mg/L DPC spray, 12 days (step 4.2)
# [5] = 500 mg/L DPC spray, 12 days (step 4.2)
# [6] = line No. 443, 500 ppm (5 mM) DPC spray
smiles,measurement,setting,value
"C[N+]1(C)CCCCC1.[Cl-] [DPC, 1,1-dimethylpiperidinium chloride]",Plant height reduction rate,"ZmCPS::ga1-5; 500 mg/L DPC, relative to 0 mg/L",0.83%
same,Effect of DPC on plant height (in words),ZmCPS::ga1-5; 30 and 500 mg/L DPC,no effect
same,Plant height,pSuper1300::ga1-5; 30 mg/L DPC spray,6.54 ± 0.20 cm
same,Plant height reduction rate,pSuper1300::ga1-5; 30 mg/L DPC,5.90%
same,Plant height,pSuper1300::ga1-5; 500 mg/L DPC spray,6.21 ± 0.14 cm
same,Plant height reduction rate,pSuper1300::ga1-5; 500 mg/L DPC,10.65%
same,Plant height,ga1-5; 30 mg/L DPC spray,6.55 ± 0.10 cm
same,Plant height reduction rate,ga1-5; 30 mg/L DPC,6.83%
same,Plant height,ga1-5; 500 mg/L DPC spray,6.40 ± 0.12 cm
same,Plant height reduction rate,ga1-5; 500 mg/L DPC,8.96%
same,Plant height (average),HRP::ga1-1; [4],9.714 cm
same,Plant height (average),"HRP::ga1-1; 50 mg/L DPC spray, 12 days",9.314 cm
same,Plant height (average),"HRP::ga1-1; 100 mg/L DPC spray, 12 days",9.343 cm
same,Plant height (average),"HRP::ga1-1; 300 mg/L DPC spray, 12 days",8.857 cm
same,Plant height (average),HRP::ga1-1; [5],8.586 cm
same,Plant height (average),"HRP::ga1-1; 1000 mg/L DPC spray, 12 days",7.243 cm
same,Plant height (average),HRP::ga1-5; [4],11.93 cm
same,Plant height (average),"HRP::ga1-5; 50 mg/L DPC spray, 12 days",9.843 cm
same,Plant height (average),"HRP::ga1-5; 100 mg/L DPC spray, 12 days",10.14 cm
same,Plant height (average),"HRP::ga1-5; 300 mg/L DPC spray, 12 days",9.957 cm
same,Plant height (average),HRP::ga1-5; [5],9.857 cm
same,Plant height (average),"HRP::ga1-5; 1000 mg/L DPC spray, 12 days",7.357 cm
same,Sensitivity of the plant to DPC (in words),"[1]; complementary plant, line No. 443 (FIG. 5), 500 ppm (5 mM) DPC spray",sensitive
same,Ear height,[1]; [6],80.0
same,Plant height at tasseling stage,[1]; [6],187.9
same,Plant height at 2 weeks after treatment,"[1]; line No. 443, whole plant sprayed with 500 ppm (5 mM) DPC at 7 and 12 leaf expansion phase",128.9
same,Ear height,[2],80.5
same,Plant height at 2 weeks after treatment,[2],133.2
same,Plant height at tasseling stage,[2],197.9
same,Ear height,[3],75.2
same,Plant height at 2 weeks after treatment,[3],133.5
same,Plant height at tasseling stage,[3],182.8
same,Ear height,B73 (WT); B73 wild type,91.3
same,Plant height at 2 weeks after treatment,B73 (WT); B73 wild type,151
same,Plant height at tasseling stage,B73 (WT); B73 wild type,207.5
same,Sensitivity of the plant to DPC (in words),B73 (WT); WT (B73),insensitive
same,Plant height and stem diameter compared with control,maize Zhengdan 958,no significant difference
